Results published in patent US20040127567A1, “Novel methods for treating disorders in which docosahexaenoic acid (DHA) levels are affected” (Beth Israel Deaconess Medical Center, Inc., priority 1998, published 2004).
Several values for one entry are separate records, joined by “and”; a condition that tells them apart may be missing. Equal values may be shown once. Entries after “also recorded” stand apart in the source; their conditions may differ.

Columns and labels:
Type in all cases: in vivo, mouse
CFTR−/− mice [1] = experiment: Fatty acid levels (GC/MS) in pancreas and lung cells of CFTR−/− mice fed n-3 fatty acids; conditions: for DHA level in pancreas: CFTR-/- mice, mean ± S.D.; for DHA level in pancreas / Change in phospholipid/membrane-bound AA (in words) / Change in phospholipid/membrane-bound DHA (in words): 40 mg/day for one week (fish oil: dose equivalent to 40 mg DHA, 60 mg EPA, 15 mg LNA); for Change in phospholipid/membrane-bound AA (in words) / Change in phospholipid/membrane-bound DHA (in words): vs Peptamen alone
Protocol: Mouse pancreatic acinar and lung cell suspensions were prepared from wild type (n=3) and CFTR−/− mice (n=3) by enzymatic and mechanical dissociation. In addition, brain, kidney, heart, spleen, and blood were sonicated in 0.3M sucrose buffer. Membrane lipids were extracted from cell and organ preparations with 20 volumes of chloroform-methanol 2:1 (v/v), transmethylated with 0.5 mL of 0.1 N methanolic-NaOH/BF3 reagent, and the resulting fatty acid methyl esters analyzed by gas chromatography/mass spectrometry (GC/MS). In a different set of experiments, lipids were fractionated by aminopropyl column chromatography into triglycerides, cholesterol esters, and phosphoglycerides and the fatty acid composition of each lipid class determined by a combination of enzymatic hydrolysis, transmethylation, and GC/MS.
Cystic fibrosis (UNC strain) and wild type mice (12-20 grams body weight) were fed with a complete liquid enteral formulation (Peptamen™, Nestle Clinical Nutrition, Inc.) supplemented with different quantities of the DHA-containing formulation Neuromins (Nature's Way Products Inc., Springville, Utah). DHA content in the Neuromins formulation was 100 mg per 500 mg of formulation. Mice were fed once a day at about 11 a.m., seven days a week with 20 ml of Peptamen™ supplemented with the various amounts of either Neuramins, free DHA (Sigma Chemical Co., MO) or DHA-ethyl ester (Nu-Check-Prep, Inc. MN) ranging from 0.5 mg/day of DHA to 40 mg/day of DHA.
Lung and acinar cells were isolated from a CF mouse fed with DHA formula (mouse-1, 40 mg/day DHA). The pellets (0.5 mL for pancreas cell homogenate and 0.6 mL for lung cell homogenate) were extracted with 3 mL of chloroform-methanol 2:1 (v/v). The resulting emulsion was vortexed, centrifuged at 800 g for 3 min., and the lower phase aspirated. The residual upper phase was partitioned again with 3 mL of chloroform-methanol 2:1 (v/v), the lower phase aspirated and both lower phases combined. Fractions were evaporated to dryness, processed for fatty acid methyl esters (FAME) and were analyzed by GC-MS analysis. Aliquots of 10 μL of 17:0 methyl ester solution in hexane [1 μg/μL] were added to the samples after methylation.
(§1) Lung and acinar cells were isolated from a CF and a wild-type (WT) mouse fed with DHA formula. The pellets (0.5 mL for pancreas cell homogenate and 0.6 mL for lung cell homogenate) were extracted with 3 mL of chloroform-methanol 2:1 (v/v). The resulting emulsion was vortexed, centrifuged at 800 g for 3 min., and the lower phase aspirated. The residual upper phase was partitioned again with 3 mL of chloroform-methanol 2:1 (v/v), the lower phase aspirated and both lower phases combined. Fractions were evaporated to dryness, processed for FAME and analyzed by GC-MS. Aliquots of 20 μL of 17:0 in chloroform-methanol 2:1 (v/v) were added to the samples before methylation.
as §1, with “from” for “from a”, “mice” for “and a wild-type (WT) mouse”, “different doses of DHA, i.e., 0.5 mg/day, 2.0 mg/day, 10 mg/day or 40 mg/day DHA.” for “DHA formula.”, “pellets” for “pellets (0.5 mL for pancreas cell homogenate and 0.6 mL for lung cell homogenate)”, “30” for “20”
CFTR−/− mice were prepared as described in Example 1. Both CFTR−/− mice and wild type mice were euthanized with carbon dioxide, and cell suspensions from pancreas and lung isolated.

CFTR−/− mice [2] = experiment: Pancreatic morphology / luminal diameter in CFTR−/− mice; conditions: for Effect on pancreas morphology (in words): 40 mg/day for one week (fish oil: dose equivalent to 40 mg DHA, 60 mg EPA, 15 mg LNA), vs Peptamen alone
Protocol: CF and WT mice were fed as outlined in the method section above. Dilation of the pancreatic duct lumen is a hallmark feature of cystic fibrosis. Therefore, the luminal area was measured from a minimum of 30 images from CF knockout mice treated with Peptamen™ alone or Peptamen™ plus 40 mg/day of DHA as well as wild type (WT) mice treated with Peptamen™ alone beginning at the time of weaning. Animals were sacrificed at 37 days of age and each pancreas fixed in glutaraldehyde. Analysis was performed using NIH Image software. The results are outlined in FIG. 1. […] No other treatment to date has shown tissue improvements at a morphological level.
The morphology of various organs were also studied. Sample preparation were carried out as follows: 1-2 cm of ileum adjacent to the cecum was fixed in formalin, embedded in paraffin, cut in cross-section, and stained with hematoxylin/eosin. For pancreatic analyses, 2-3 mm pieces of pancreas were fixed for 1.5 h in 2% glutaraldehyde in 0.2M cacodylate buffer. Tissue samples were then washed in 0.2M cacodylate buffer and subsequently postfixed for 1 h in 1% osmium tetroxide in 0.1 M cacodylate buffer. Tissue was embedded in epon and thick sections stained with 1% toluidine blue.
Morphometry: For measurement of ileal villus height or pancreatic luminal diameter, multiple images were randomly taken at 200× using a Nikon Microphot-SA microscope equipped with a Diagnostic Instruments, Inc., Spot Digitizing System. Images were examined in a blinded fashion by two independent observers. Quantitation was performed using NIH Imaging Software. The differences between the means in the groups tested were evaluated using the Student's t-test.
Tissue samples from these mice were prepared for light microscopy and sections analyzed at 200×. Pancreatic acinar cell morphology of CFTR−/− control mice is characterized by massive luminal dilatation and zymogen granule accumulation at the apical pole of the acinar cells (data not shown), two hallmark features of cystic fibrosis pathology (W. V. L. Go. (1993) Pancreas: Biology, Pathobiology, and Disease, Chapter 54:1041-1081). […] Luminal diameter is approximately 9fold greater in CFTR−/− mice. […] There also appeared to be a decrease in ductal plugs DGA-fed CFTR−/− mice; however, this observation was not subjected to morphometric analysis.
Additional experiments were performed to observe the effect of administering the DHA precursor docosapentaenoic acid (DPA,22:5n-3) on DHA levels. Wild-type and CFTR−/− mice were fed with 40 mg of DPA per day for 7 days and fatty acids in pancreas and lung analyzed by GC/MS. One to 2 mm pieces of pancreas from both wild-type and CFTR−/−were fixed for 1.5 h in […] in 0.2M cacodylate buffer and processed for morphometric analysis.

CFTR−/− mice [3] = experiment: Fatty acid levels (GC/MS) in pancreas and lung cells of CFTR−/− mice fed n-3 fatty acids; conditions: for AA level in pancreas: CFTR-/- mice, 40 mg/day for one week (fish oil: dose equivalent to 40 mg DHA, 60 mg EPA, 15 mg LNA), mean ± S.D.
[4] = CF mice, 40 mg/day DHA (dose series, Table 5)
[5] = CF mouse-1, 40 mg/day DHA, day 30 to day 37
[6] = CF mouse-2, 40 mg/day DHA, day 24 to day 47
[7] = CFTR−/− mice, listed as 18:3n-3
[8] = CFTR (-/-) mice, 40 mg DPA per day for 7 days

What does the source list for `CC/C=C\C/C=C\C/C=C\C/C=C\C/C=C\C/C=C\CCC(=O)O` [DHA, docosahexaenoic acid]?
20:4n-6 in pancreas (CFTR−/− mice [1]; CF mice, 0.5 mg/day DHA): 315 nmoles per total extract; 22:4n-6 in pancreas (CFTR−/− mice [1]; CF mice, 0.5 mg/day DHA): 8.3 nmoles per total extract; 22:6n-3 in pancreas (CFTR−/− mice [1]; CF mice, 0.5 mg/day DHA): 39 nmoles per total extract; 20:4n-6 in pancreas (CFTR−/− mice [1]; CF mice, 2 mg/day DHA): 233 nmoles per total extract; 22:4n-6 in pancreas (CFTR−/− mice [1]; CF mice, 2 mg/day DHA): 7.2 nmoles per total extract; 22:6n-3 in pancreas (CFTR−/− mice [1]; CF mice, 2 mg/day DHA): 43 nmoles per total extract; 20:4n-6 in pancreas (CFTR−/− mice [1]; CF mice, 10 mg/day DHA): 177 nmoles per total extract; 22:4n-6 in pancreas (CFTR−/− mice [1]; CF mice, 10 mg/day DHA): 3.7 nmoles per total extract; 22:6n-3 in pancreas (CFTR−/− mice [1]; CF mice, 10 mg/day DHA): 67 nmoles per total extract; 20:4n-6 in pancreas (CFTR−/− mice [1]; [4]): 67 nmoles per total extract; 22:4n-6 in pancreas (CFTR−/− mice [1]; [4]): 0.4 nmoles per total extract; 22:6n-3 in pancreas (CFTR−/− mice [1]; [4]): 148 nmoles per total extract; 20:4n-6 in lung (CFTR−/− mice [1]; [5]): 75 nmoles per total extract; 20:4n-6 in pancreas (CFTR−/− mice [1]; [5]): 144^1 nmoles per total extract; 22:4n-6 in lung (CFTR−/− mice [1]; [5]): 12 nmoles per total extract; 22:4n-6 in pancreas (CFTR−/− mice [1]; [5]): 1.5 nmoles per total extract; 22:6n-3 in lung (CFTR−/− mice [1]; [5]): 167 nmoles per total extract; 22:6n-3 in pancreas (CFTR−/− mice [1]; [5]): 167 nmoles per total extract; 20:4n-6 in lung (CFTR−/− mice [1]; [6]): 60 nmoles per total extract; 20:4n-6 in pancreas (CFTR−/− mice [1]; [6]): 67^1 nmoles per total extract and 67 nmoles per total extract; 22:4n-6 in lung (CFTR−/− mice [1]; [6]): 4.1 nmoles per total extract; 22:4n-6 in pancreas (CFTR−/− mice [1]; [6]): 0.4 nmoles per total extract; 22:6n-3 in lung (CFTR−/− mice [1]; [6]): 222 nmoles per total extract; 22:6n-3 in pancreas (CFTR−/− mice [1]; [6]): 148 nmoles per total extract; DHA level in pancreas (CFTR−/− mice [1]): 7.9 ± 1.5 nmol/mg; Increase of DHA levels in pancreas above wild-type levels (CFTR−/− mice [1]; CFTR−/− mice, 40 mg DHA/day): 3 fold; Decrease in pancreatic luminal diameter (CFTR−/− mice [2]; oral 40 mg/day for 7 days, p<0.0001, n=6): 63%; AA level in pancreas (CFTR−/− mice [3]): 4.9 ± 1.8 nmol/mg

For `CC/C=C\C/C=C\C/C=C\CCCCCCCC(=O)O` [LNA, α-linolenic acid, reference compound], which “DHA level in pancreas” value (CFTR−/− mice [1]) is on record?
Its value is 0.7 ± 0.07 nmol/mg.

And the “Change in phospholipid/membrane-bound AA (in words)” value (CFTR−/− mice [1]; CFTR−/− mice)?
Its value is “significant decrease; also recorded: four-fold decrease”.

What about the “Change in phospholipid/membrane-bound DHA (in words)” value (CFTR−/− mice [1]; CFTR−/− mice) of the same molecule?
The value was “further decrease; also recorded: two-fold decrease”.

And the “Change in phospholipid/membrane-bound AA (in words)” value (CFTR−/− mice [1]; [7])?
The value was “significant decrease”.

And the “Change in phospholipid/membrane-bound DHA (in words)” value (CFTR−/− mice [1]; [7])?
Its value is “further decrease”.

And the “Effect on pancreas morphology (in words)” value (CFTR−/− mice [2])?
Its value is “significant increase in acinar lumen dilatation and plug formation; also recorded: significant increase in ductal dilatation; also recorded: increased acinar lumen dilation and plug formation”.

And the “Effect on pancreas morphology (in words)” value (CFTR−/− mice [2]; listed as 18:3n-3)?
The value was “worsening of the pathological changes in the pancreas”.

What about the “AA level in pancreas” value (CFTR−/− mice [3]) of the same molecule?
Its value is 5.5 ± 0.8 nmol/mg.

For `CC/C=C\C/C=C\C/C=C\C/C=C\C/C=C\CCCCCC(=O)O` [DPA, docosapentaenoic acid], which “20:4n-6 in lung” value (CFTR−/− mice [1]; [8]) is on record?
The value was 5.8 ± 0.9 (17.5) nmoles of fatty acid per mg of protein.

What about the “20:4n-6 in pancreas” value (CFTR−/− mice [1]; [8]) of the same molecule?
The value was 5.1 ± 0.6^1 (13.3) nmoles of fatty acid per mg of protein.

What about the “20:5n-3 in lung” value (CFTR−/− mice [1]; [8]) of the same molecule?
Its value is 15.6 ± 1.1 (0.1) nmoles of fatty acid per mg of protein.

What about the “22:6n-3 in lung” value (CFTR−/− mice [1]; [8]) of the same molecule?
The value was 5.5 ± 0.8(4.0) nmoles of fatty acid per mg of protein.

What about the “DHA level in pancreas” value (CFTR−/− mice [1]) of the same molecule?
Its value is 3.7 ± 0.4 nmol/mg.

And the “Improvement in pancreas morphology (pancreatic ductal diameter, presence of plugs)” value (CFTR−/− mice [2]; 40 mg per day for 7 days)?
The value was 20%.

What about the “20:5n-3 in pancreas” value (CFTR−/− mice [3]; [8]) of the same molecule?
The value was 14.6 ± 1.1 (0.1) nmoles of fatty acid per mg of protein.

What about the “22:6n-3 in pancreas” value (CFTR−/− mice [3]; [8]) of the same molecule?
Its value is 2.0 ± 0.4(1.5) nmoles of fatty acid per mg of protein.

What about the “AA level in pancreas” value (CFTR−/− mice [3]) of the same molecule?
The value was 5.1 ± 0.6 nmol/mg.
